Assays:
[1] = system: protein with a molecular weight of about 30 kDa; test: Isolation and competition with H-9-immobilized SG-EGDE particles, HeLa cell nuclear extracts; format: binding; details: for elution of the 30 kDa protein from H-9-immobilized particles by free drug: elution with 3 mM drug; for yield of the 30 kDa protein in competition experiment: free drug added simultaneously
Description: HeLa cell nuclear extracts (NE) were prepared according to the method as described previously (Dignam, J. D., Lebovitz, R. M. and Roeder, R. G. (1983). Accurate transcription by RNA pol II in a soluble extracts from isolated mammalian nucleic. Nucleic Acids Res 11. 1475-1489).

[2] = system: protein with a molecular weight of about 110 kDa; test: Isolation and competition with DQ2511-immobilized particles, HeLa cytoplasmic fraction; format: binding; details: 1.0 M KCl eluate
Description: To these washed DQ2511-not-immobilized SG-EGDE particles and DQ2511-immobilized-SG-EGDE particles, 1 ml of the diluted cytoplasmic fraction was added and mixed. […] The wash solution and eluate solutions were stored at −80° C.

[3] = system: protein with a molecular weight of about 170 kDa; test: Isolation and competition with DQ2511-immobilized particles, lysate of rat DRG cell; format: binding; details: concentrated crude lysate of rat DRG cell
Description: Microspheres and the concentrated crude lysate of rat DRG cell were mixed and centrifuged to separate substances binding to DQ2511 which was immobilized on particles from the mixture. The procedures of binding, washing and detection of protein were performed as described above. […] In the above procedure, about 10 ng of 170 kDa DQ2511-binding protein was obtained from 1 mg of the DQ2511-immobilized SG-EGDE particles.

[4] = molecular target: T1, Ref-1 acting on p50/p50 homo-dimer or p65/p50 hetero-dimer (Homo sapiens, UniProt P27695); test: Gel-shift assay with recombinant p65 and p50 subunits; format: biochemical
T1 construct: His6 (pET14b) (N); made in house; p50 and p65: baculovirus expression system

Solubility in water = format: physicochemical
Ref-1 [5] = molecular target: T2, Ref-1 (Homo sapiens, UniProt P27695); test: Far Western method using 14C-labeled E3330; format: binding
T2 construct: His6 (pET14b) (N); made in house

[6] = molecular target: protein with a molecular weight of about 38 kDa (Ref-1) (Homo sapiens, UniProt P27695); test: Isolation and competitive binding-inhibition with E3330-immobilized SG-EGDE particles, Jurkat cytoplasmic P.5 fraction
NF-κB = test: Transfection of NF-κB-regulated luciferase plasmid into Jurkat cells; format: cell-based; details: luciferase genes regulated by NF-κB
From the text: The functions of NH2-E3330 were compared with those of E3330 with respect to transcriptional activation abilities of NF-κB.

Ref-1 [7] = molecular target: T2, Ref-1; test: AP nuclease activity of recombinant Ref-1 on AP plasmid DNA; format: biochemical; details: supercoiled AP plasmid DNA to open circular
Description: First, concerning AP nuclease activity, the plasmid pBluescript SK+DNA (50 μg) was treated with 50 mM sodium citrate (pH 3.5) at 60° C. for 15 minutes, followed by dialysis in 50 mM Tris-HCl (pH 7.4) at 4° C. for about 24 hours.

[8] = molecular target: T3, Ref-1 amino acid sequence 72 a.a. to 88 a.a. (Homo sapiens, UniProt P27695); test: Binding of Ref-1 fragment 72 a.a. to 88 a.a. to E3330-immobilized particles
T3 construct: made in house

[9] = system: proteins with a molecular weight of about 60, 38, and 27 kDa; test: Isolation and competition with E3330-immobilized SG-EGDE particles, Jurkat nuclear extract; format: binding; details: 1M KCl eluate
Description: From the purification using P.1, there was not observed any specific protein band specifically eluted from E3330-immobilized particles.
The identification of the specific proteins were conducted by electrophoresis using SDS-PAGE.

[10] = molecular target: T4, Ref-1 redox activity on NF-κB (Homo sapiens, UniProt P27695); test: Gel-shift assay of NF-κB DNA binding, NF-κB partially purified from Jurkat cells; format: biochemical
T4 construct: His6 (pET14b) (N); made in house; NF-κB: partially purified from Jurkat cells
Description: Prior to the conduction of the investigation, there are some considerations. […] There are two cases; one is an oxidized condition where these cystine residues are bound to each other through an S-S bond; and the other one is a reduced condition where they are individually existing with an SH-group. Therefore, NF-κB was treated with dithiothreitol (DTT) that is known as a reductant to make the state of NF-κB to be reduction.

[11] = molecular target: recombinant protein of Ref-1 (Homo sapiens, UniProt P27695); test: Binding of recombinant Ref-1 to E3330-immobilized particles
recombinant protein of Ref-1, sequence (P27695 whole entry): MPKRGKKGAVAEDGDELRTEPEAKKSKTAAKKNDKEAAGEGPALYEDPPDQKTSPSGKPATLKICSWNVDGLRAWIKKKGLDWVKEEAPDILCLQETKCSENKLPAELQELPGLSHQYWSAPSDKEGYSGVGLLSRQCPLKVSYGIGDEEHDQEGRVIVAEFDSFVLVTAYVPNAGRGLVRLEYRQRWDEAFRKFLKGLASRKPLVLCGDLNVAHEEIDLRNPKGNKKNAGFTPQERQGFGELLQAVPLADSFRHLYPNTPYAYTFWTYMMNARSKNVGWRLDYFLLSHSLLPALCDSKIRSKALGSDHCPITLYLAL

T4 sequence (P27695 whole entry): as above
T2 sequence (P27695 whole entry): as above
protein with a molecular weight of about 38 kDa (Ref-1), sequence (P27695 whole entry): as above
T1 sequence (P27695 whole entry): as above

NCCNS(=O)(=O)c1cccc2cnccc12 [H-9]
protein band not observed in reference control (specific binding) ([1]; HeLa nuclear extract, SDS-PAGE silver staining): specifically binding to H-9
elution of the 30 kDa protein from H-9-immobilized particles by free drug [1]: same protein band was obtained
yield of the 30 kDa protein in competition experiment [1]: lower yield

CNC(=O)c1cccc(NCC(=O)NCCc2ccc(OC)c(OC)c2)c1 [DQ2511]
protein band not observed in reference control (specific binding) [2]: specifically binding to DQ2511
protein obtained from immobilized particles (binding ability) [3]: possessing DQ2511-binding ability

CCCCCCCCC/C(=C\C1=C(C)C(=O)C(OC)=C(OC)C1=O)C(=O)O [E3330]
enhancement of DNA-binding ability of p50/p50 homo-dimer or p65/p50 hetero-dimer by Ref-1 [4]: reduced
solubility in water (Solubility in water): insoluble in water
binding in Far Western method (Ref-1 [5]): bound to Ref-1
protein band not observed in reference control (specific binding) ([6]; P.5 fraction, 1 M KCl eluate, SDS-PAGE silver staining): specifically binding to E3330
yield of the about 38 kDa protein in competitive binding-inhibitory experiment ([6]; free E3330 at the same moles as immobilized NH2-E3330): lowered
transcriptional activation abilities of NF-κB (NF-κB): reduced
AP nuclease activity of Ref-1 (Ref-1 [7]): not inhibited
binding of recombinant protein possessing only 72 a.a. to 88 a.a. of Ref-1 [8]: confirmation of its binding ability against E3330
protein bands not observed in reference control (specific binding) [9]: specifically binding to E3330
enhancement of the DNA-binding activity of NF-κB by Ref-1 [10]: reduced
increase in the DNA-binding activity of NF-κB by DTT [10]: did not inhibit
binding of recombinant Ref-1 to immobilized drug [11]: specifically bound to E3330

CNCCNS(=O)(=O)c1cccc2cnccc12 [H-8]
elution of the 30 kDa protein from H-9-immobilized particles by free drug [1]: same protein band was obtained
yield of the 30 kDa protein in competition experiment [1]: lower yield

From patent publication US6703207B2, “Method of screening substances with a glycidyl methacrylate covered styrene-glycidyl methacrylate polymer” (priority 1996, dated 2004)
